For nine compounds, Kd and IC50 results are on record in patent US9938261B2, “Heterocyclic compounds and methods of use thereof” (AMBIT BIOSCIENCES CORPORATION, priority 2011, dated 2018).

For one assay, the target named is T1, FLT3 (Homo sapiens, UniProt P36888).
T1 construct: made in house
T1 sequence (P36888 27-993): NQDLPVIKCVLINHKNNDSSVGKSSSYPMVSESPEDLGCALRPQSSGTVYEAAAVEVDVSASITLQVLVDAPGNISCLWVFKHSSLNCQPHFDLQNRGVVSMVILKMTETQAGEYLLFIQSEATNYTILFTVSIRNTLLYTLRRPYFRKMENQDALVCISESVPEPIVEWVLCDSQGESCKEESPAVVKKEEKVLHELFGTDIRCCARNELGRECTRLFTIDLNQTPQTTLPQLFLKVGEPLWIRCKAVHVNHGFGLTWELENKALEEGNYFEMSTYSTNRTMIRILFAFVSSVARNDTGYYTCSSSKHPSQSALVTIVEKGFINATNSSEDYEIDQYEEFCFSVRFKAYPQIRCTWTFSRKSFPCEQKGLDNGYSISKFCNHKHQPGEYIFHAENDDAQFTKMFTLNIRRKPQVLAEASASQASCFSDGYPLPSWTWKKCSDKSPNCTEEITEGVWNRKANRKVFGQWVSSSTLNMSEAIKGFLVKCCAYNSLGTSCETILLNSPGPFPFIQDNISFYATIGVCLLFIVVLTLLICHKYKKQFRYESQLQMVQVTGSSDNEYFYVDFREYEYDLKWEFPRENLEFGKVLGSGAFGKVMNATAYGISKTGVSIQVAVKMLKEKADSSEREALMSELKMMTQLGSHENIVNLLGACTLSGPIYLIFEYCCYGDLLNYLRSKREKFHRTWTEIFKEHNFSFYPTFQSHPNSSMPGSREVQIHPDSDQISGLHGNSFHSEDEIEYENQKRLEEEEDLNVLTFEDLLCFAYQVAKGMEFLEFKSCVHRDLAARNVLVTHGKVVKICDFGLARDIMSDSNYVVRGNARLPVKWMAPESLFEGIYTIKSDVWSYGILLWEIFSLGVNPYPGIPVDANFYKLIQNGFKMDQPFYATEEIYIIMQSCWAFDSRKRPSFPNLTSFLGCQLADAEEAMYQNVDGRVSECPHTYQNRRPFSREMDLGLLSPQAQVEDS
Description: Competition binding assay, FLT3 Kd. Conditions: competition binding. Summed up: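 Kd values came from eleven-point threefold dilutions of compound, measured by qPCR of kinase eluted from affinity-ligand beads after 1 h equilibrium binding at room temperature. Kinase was either T7-phage fused or HEK-293-expressed with a DNA tag.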

For a further assay, the target named is CSF1R (Homo sapiens, UniProt P07333). Nature of the assay: HEK293 CSF1R phosphorylation MSD assay. The assay is classed as cell-based. Further details: expressed in transfected cells; host or cells: HEK293. Conditions: HEK293 cells, M-CSF stimulated CSF1R phosphorylation, MSD; read-out: HEK293 pCSF1R M-CSF MSD:IC50. A digest of the protocol:
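Ligand-induced CSF1R autophosphorylation was measured by MSD sandwich assay: CSF1R-FKBP from lysates captured via FK506, anti-phosphotyrosine readout. Cells were exposed to compound for 2 h (9-point, half-log, 0.5% DMSO) before 5 min 50 ng/mL M-CSF. Reported IC50 is the mean of duplicate-plate IC50s relative to DMSO control.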

For orientation: Kd means the concentration at which binding is half-saturated. High values mean lower affinity, low ones higher affinity. For orientation: IC50 means the concentration needed to halve the response being measured.

Molecules are shown by their SMILES.

Sequence of CSF1R (P07333 20-972): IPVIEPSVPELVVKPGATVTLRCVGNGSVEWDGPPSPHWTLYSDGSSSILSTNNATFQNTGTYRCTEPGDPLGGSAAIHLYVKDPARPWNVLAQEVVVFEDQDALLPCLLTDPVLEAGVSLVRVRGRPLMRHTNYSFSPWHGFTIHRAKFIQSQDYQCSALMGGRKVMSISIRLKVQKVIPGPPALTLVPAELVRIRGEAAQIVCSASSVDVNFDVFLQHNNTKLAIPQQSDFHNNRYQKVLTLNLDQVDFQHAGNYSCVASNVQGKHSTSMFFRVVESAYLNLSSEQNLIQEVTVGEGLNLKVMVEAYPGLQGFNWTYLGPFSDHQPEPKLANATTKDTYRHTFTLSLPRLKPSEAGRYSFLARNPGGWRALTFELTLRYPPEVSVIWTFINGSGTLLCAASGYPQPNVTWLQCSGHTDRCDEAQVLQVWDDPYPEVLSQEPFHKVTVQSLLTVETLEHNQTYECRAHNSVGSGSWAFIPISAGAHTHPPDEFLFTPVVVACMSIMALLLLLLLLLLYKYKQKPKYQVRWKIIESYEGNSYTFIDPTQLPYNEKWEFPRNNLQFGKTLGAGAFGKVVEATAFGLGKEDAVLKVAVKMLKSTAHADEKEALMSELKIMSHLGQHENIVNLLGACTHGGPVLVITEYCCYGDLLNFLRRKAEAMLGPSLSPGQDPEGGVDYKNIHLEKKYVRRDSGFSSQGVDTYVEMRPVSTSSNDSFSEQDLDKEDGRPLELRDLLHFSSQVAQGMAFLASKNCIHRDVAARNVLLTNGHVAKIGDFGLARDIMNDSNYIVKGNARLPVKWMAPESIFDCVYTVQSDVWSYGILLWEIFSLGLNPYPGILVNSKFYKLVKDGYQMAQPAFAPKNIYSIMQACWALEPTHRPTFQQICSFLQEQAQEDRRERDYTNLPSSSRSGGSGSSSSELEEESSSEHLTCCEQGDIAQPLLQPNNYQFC

Regarding `Cn1nnc(-c2ccc3c(c2)ncn3Cc2ccc3nc(N[C@@H]4CCCC[C@H]4O)sc3c2)n1` [Example 227, (1R,2R)-2-((6-((5-(2-methyl-2H-tetrazol-5-yl)-1H-benzo[d]imidazol-1-yl)methyl)benzo[d]thiazol-2-yl)amino)cyclohexanol], the Kd at FLT3 fell in the range of 1000 to 5000 nM. Besides, the IC50 at CSF1R is at most 50 nM.
The corresponding values for `O[C@H]1[C@@H](O)CCC[C@H]1Nc1nc2ccc(Cn3cnc4cc(F)cnc43)cc2s1` [Example 228, (1S,2R,3R)-3-((6-((6-fluoro-3H-imidazo[4,5-b]pyridin-3-yl)methyl)benzo[d]thiazol-2-yl)amino)cyclohexane-1,2-diol] are over 5000 nM and over 500 nM.
In turn, `O[C@@H]1[C@H](O)CCC[C@H]1Nc1nc2ccc(Cc3cnc4cc(-n5cccn5)ccn34)cc2s1` [Example 229, (1R,2S,3R)-3-((6-((7-(1H-pyrazol-1-yl)imidazo[1,2-a]pyridin-3-yl)methyl)benzo[d]thiazol-2-yl)amino)cyclohexane-1,2-diol] had a Kd at FLT3 of 200 to 1000 nM. Also, the IC50 on CSF1R is at most 50 nM.
As for `O[C@@H]1[C@H](O)CCC[C@H]1Nc1nc2ccc(Cc3cnc4cc(-n5nccn5)ccn34)cc2s1` [Example 231, (1R,2S,3R)-3-((6-((7-(2H-1,2,3-triazol-2-yl)imidazo[1,2-a]pyridin-3-yl)methyl)benzo[d]thiazol-2-yl)amino)cyclohexane-1,2-diol], the Kd at FLT3 was 1000 to 5000 nM. Also, the IC50 on CSF1R is at most 50 nM.
As to `C=Cc1ccc2c(c1)ncn2Cc1ccc2nc(N[C@@H]3CCC[C@@H](O)[C@H]3O)sc2c1` [Example 232, (1R,2S,3R)-3-((6-((5-vinyl-1H-benzo[d]imidazol-1-yl)methyl)benzo[d]thiazol-2-yl)amino)cyclohexane-1,2-diol], the Kd at FLT3 is at most 200 nM. In addition, at CSF1R, the IC50 was at most 50 nM.
For `O[C@@H]1[C@H](O)CCC[C@H]1Nc1nc2ccc(Cn3cnc4cc(OC5COC5)ccc43)cc2s1` [Example 233, (1R,2S,3R)-3-((6-((5-(oxetan-3-yloxy)-1H-benzo[d]imidazol-1-yl)methyl)benzo[d]thiazol-2-yl)amino)cyclohexane-1,2-diol], in that order: 200 to 1000 nM and at most 50 nM.
In turn, `O[C@@H]1[C@H](O)CCC[C@H]1Nc1nc2ccc(Cn3cnc4cc(-n5cncn5)cnc43)cc2s1` [Example 234, (1R,2S,3R)-3-((6-((6-(1H-1,2,4-Triazol-1-yl)-3H-imidazo[4,5-b]pyridin-3-yl)methyl)benzo[d]thiazol-2-yl)amino)cyclohexane-1,2-diol] came in with a Kd on FLT3 of 200 to 1000 nM. Besides, the IC50 at CSF1R fell in the range of 50 to 200 nM.
In turn, `O[C@@H]1[C@H](O)CCC[C@H]1Nc1nc2ccc(Cn3cnc4cc(N5CCOCC5)ccc43)cc2s1` [Example 235, (1R,2S,3R)-3-((6-((5-morpholino-1H-benzo[d]imidazol-1-yl)methyl)benzo[d]thiazol-2-yl)amino)cyclohexane-1,2-diol] registered a Kd at FLT3 of 200 to 1000 nM. For the same compound, the IC50 on CSF1R lay in the range of 50 to 200 nM.
For `Cn1nnc(-c2ccc3c(c2)ncn3Cc2ccc3nc(N[C@@H]4CCC[C@@H](O)[C@H]4O)sc3c2)n1` [Example 236, (1R,2S,3R)-3-((6-((5-(2-methyl-2H-tetrazol-5-yl)-1H-benzo[d]imidazol-1-yl)methyl)benzo[d]thiazol-2-yl)amino)cyclohexane-1,2-diol], the Kd at FLT3 lay within 200 to 1000 nM. Also, the IC50 on CSF1R lay within 50 to 200 nM.
